Reference: the Kinase Knowledgebase extract (Sharma et al. 2016)

What follows are compounds tested against MAPK14 (human) (UniProt Q16539) (assay: Inhibition of MAPK14 Kinase Activtiy).
MAPK14 (human), sequence (Q16539 whole entry, looked up): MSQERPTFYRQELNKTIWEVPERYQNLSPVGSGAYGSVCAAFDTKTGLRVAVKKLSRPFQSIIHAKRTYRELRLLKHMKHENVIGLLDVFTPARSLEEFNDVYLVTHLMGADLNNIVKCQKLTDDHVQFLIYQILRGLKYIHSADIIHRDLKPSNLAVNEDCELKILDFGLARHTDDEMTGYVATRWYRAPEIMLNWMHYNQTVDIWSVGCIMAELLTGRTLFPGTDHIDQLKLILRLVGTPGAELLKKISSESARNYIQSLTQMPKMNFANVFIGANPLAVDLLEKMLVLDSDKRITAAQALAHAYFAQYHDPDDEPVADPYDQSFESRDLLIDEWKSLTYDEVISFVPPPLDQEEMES

IC50, < 100 nM:
CC(C)(C)[C@H](NCCCOc1cc(-c2ccc(F)cc2Cl)c2ccc(=O)n(-c3c(Cl)cccc3Cl)c2c1)C(=O)O
CC(C)C[C@H](NC1CCC(c2cc(-c3ccc(F)cc3Cl)c3c(c2)N(c2c(Cl)cccc2Cl)C(=O)CC3)CC1)C(=O)O (stereo not given in full)
O=C(O)[C@@H](NCCCOc1cc(-c2ccc(F)cc2Cl)c2ccc(=O)n(-c3c(F)cccc3F)c2c1)c1ccccc1
O=C(O)[C@@H](NCCCOc1cc(-c2ccc(F)cc2Cl)c2ccc(=O)n(-c3c(F)cccc3F)c2c1)C1CCCCC1
CC(C)C[C@H](NCCCOc1cc(-c2ccc(F)cc2Cl)c2ccc(=O)n(-c3ccccc3)c2c1)C(=O)O
CC(C)C[C@H](NCCCOc1cc(-c2ccc(F)cc2Cl)c2ccc(=O)n(-c3c(Cl)cccc3Cl)c2c1)C(=O)O
CC(C)(C)OC[C@H](NCCCOc1cc(-c2ccc(F)cc2Cl)c2ccc(=O)n(-c3c(Cl)cccc3Cl)c2c1)C(=O)O
CC(C)C[C@H](NCCCOc1cc(-c2ccc(F)cc2Cl)c2ccc(=O)n(-c3c(Cl)cccc3Cl)c2c1)C(=O)OC1CCCC1
CC(C)C[C@H](NCCc1cc(-c2ccc(F)cc2Cl)c2ccc(=O)n(-c3c(F)cccc3F)c2c1)C(=O)O
O=C(O)[C@@H](NCCCOc1cc(-c2ccc(F)cc2Cl)c2ccc(=O)n(-c3c(Cl)cccc3Cl)c2c1)c1ccccc1
CC(C)C[C@H](NCCCOc1cc(-c2ccc(F)cc2Cl)c2ccc(=O)n(-c3c(F)cccc3F)c2c1)C(=O)O
CC(C)C[C@H](NC[C@@H](O)COc1cc(-c2ccc(F)cc2Cl)c2ccc(=O)n(-c3c(F)cccc3F)c2c1)C(=O)O
CC(C)(C)OC[C@H](NCCCOc1cc(-c2ccc(F)cc2Cl)c2ccc(=O)n(-c3c(Cl)cccc3Cl)c2c1)C(=O)OC1CCCC1
CC(C)C[C@H](NCCCOc1cc(-c2ccc(F)cc2F)c2ccc(=O)n(-c3c(F)cccc3F)c2c1)C(=O)O
CC(C)C[C@H](NCCCOc1cc(-c2ccc(F)cc2Cl)c2ccc(=O)n(-c3c(Cl)cccc3Cl)c2c1)C(=O)OC1CCN(C)CC1
CC(C)C[C@H](NC[C@H](O)COc1cc(-c2ccc(F)cc2Cl)c2ccc(=O)n(-c3c(F)cccc3F)c2c1)C(=O)O
O=C(O)[C@@H](NCCCOc1cc(-c2ccc(F)cc2Cl)c2ccc(=O)n(-c3c(Cl)cccc3Cl)c2c1)C1CCCCC1
CC(C)C[C@H](NCCCOc1cc(-c2ccc(F)cc2Cl)c2ccc(=O)n(-c3c(Cl)cccc3Cl)c2c1)C(=O)OC(C)C
CC(C)C[C@H](NCCCCCOc1cc(-c2ccc(F)cc2Cl)c2ccc(=O)n(-c3c(Cl)cccc3Cl)c2c1)C(=O)O
CC(C)C[C@H](NCCc1cc(-c2ccc(F)cc2Cl)c2ccc(=O)n(-c3c(Cl)cccc3Cl)c2c1)C(=O)O
